Where two headings read alike, the source gives them in different places.
Legend:
[1] = molecular target: T1, Hsp90 in C. albicans (SC5314) lysate (Candida albicans, UniProt P46598); experiment: biochemical; type: binding; details: for FP signal: raw
T1 construct: endogenous in cells; host or cells: C. albicans SC5314 whole-cell lysate

Hsp90 in HEPG2 lysate = details: for FP signal: raw
[2] = SC5314 lysate, 0.457 nM compound
[3] = SC5314 lysate, 1.372 nM compound
[4] = SC5314 lysate, 4.115 nM compound
[5] = SC5314 lysate, 12.346 nM compound
[6] = SC5314 lysate, 37.037 nM compound
[7] = SC5314 lysate, 111.111 nM compound
[8] = SC5314 lysate, 333.333 nM compound
[9] = SC5314 lysate, 1000 nM compound
[10] = SC5314 lysate, 3000 nM compound

T1 sequence (P46598 whole entry): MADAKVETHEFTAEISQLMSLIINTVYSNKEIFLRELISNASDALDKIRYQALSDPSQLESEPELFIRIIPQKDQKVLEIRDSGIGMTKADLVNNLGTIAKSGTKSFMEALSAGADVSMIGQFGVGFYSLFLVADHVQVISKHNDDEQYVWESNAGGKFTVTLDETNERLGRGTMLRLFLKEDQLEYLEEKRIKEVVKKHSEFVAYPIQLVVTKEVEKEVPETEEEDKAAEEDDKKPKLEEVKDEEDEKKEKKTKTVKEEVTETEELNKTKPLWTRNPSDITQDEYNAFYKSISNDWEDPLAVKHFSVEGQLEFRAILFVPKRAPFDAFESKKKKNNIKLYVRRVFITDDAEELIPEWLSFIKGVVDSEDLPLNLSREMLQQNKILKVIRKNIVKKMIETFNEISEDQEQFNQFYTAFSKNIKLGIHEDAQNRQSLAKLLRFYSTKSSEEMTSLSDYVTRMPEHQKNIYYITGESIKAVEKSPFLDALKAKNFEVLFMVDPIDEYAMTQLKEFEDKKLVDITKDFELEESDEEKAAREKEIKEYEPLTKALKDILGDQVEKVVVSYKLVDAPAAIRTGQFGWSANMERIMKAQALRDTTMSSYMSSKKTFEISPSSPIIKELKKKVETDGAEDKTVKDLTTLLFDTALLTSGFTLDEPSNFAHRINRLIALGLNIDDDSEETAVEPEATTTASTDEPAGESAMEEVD

Q: Which “Ratio re. GdA” value ([1]; EC50 relative to GdA, SC5314 lysate) does the source give for `CCON=C1/C=C/C=C\[C@H]2O[C@H]2C[C@@H](C)OC(=O)c2c(O)cc(O)c(Cl)c2C1` [compound 333] here?
A: 0.3152

Q: What about the “FP signal (raw)” value ([1]; SC5314 lysate, 0.457 nM) of the same compound?
A: 168

Q: What about the “FP signal relative to 0 nM” value [1, 2] of the same compound?
A: 0.8317

Q: What about the FP signal [1, 2] of the same compound?
A: 168

Q: And the “FP signal (raw)” value ([1]; SC5314 lysate, 1.372 nM)?
A: 155

Q: What about the “FP signal relative to 0 nM” value [1, 3] of the same compound?
A: 0.7673

Q: And the FP signal [1, 3]?
A: 155

Q: What about the “FP signal (raw)” value ([1]; SC5314 lysate, 4.115 nM) of the same compound?
A: 114

Q: What about the “FP signal relative to 0 nM” value [1, 4] of the same compound?
A: 0.5644

Q: What about the FP signal [1, 4] of the same compound?
A: 114

Q: What about the “FP signal (raw)” value ([1]; SC5314 lysate, 12.346 nM) of the same compound?
A: 81

Q: And the “FP signal relative to 0 nM” value [1, 5]?
A: 0.401

Q: And the FP signal [1, 5]?
A: 81

Q: What about the “FP signal (raw)” value ([1]; SC5314 lysate, 37.037 nM) of the same compound?
A: 58

Q: And the “FP signal relative to 0 nM” value [1, 6]?
A: 0.2871

Q: What about the FP signal [1, 6] of the same compound?
A: 58

Q: What about the “FP signal (raw)” value ([1]; SC5314 lysate, 111.111 nM) of the same compound?
A: 39

Q: And the “FP signal relative to 0 nM” value [1, 7]?
A: 0.1931

Q: And the FP signal [1, 7]?
A: 39

Q: What about the “FP signal (raw)” value ([1]; SC5314 lysate, 333.333 nM) of the same compound?
A: 35

Q: What about the “FP signal relative to 0 nM” value [1, 8] of the same compound?
A: 0.1733

Q: And the FP signal [1, 8]?
A: 35

Q: What about the “FP signal (raw)” value ([1]; SC5314 lysate, 1000 nM) of the same compound?
A: 36

Q: What about the “FP signal relative to 0 nM” value [1, 9] of the same compound?
A: 0.1782

Q: What about the FP signal [1, 9] of the same compound?
A: 36

Q: What about the “FP signal (raw)” value ([1]; SC5314 lysate, 3000 nM) of the same compound?
A: 35

Q: And the “FP signal relative to 0 nM” value [1, 10]?
A: 0.1733

Q: And the FP signal [1, 10]?
A: 35

Q: What about the EC50 ([1]; SC5314 lysate, not normalized, oxime panel experiment 220817, read-out: EC50) of the same compound?
A: 5.36 nM

Q: What about the HepG2/SC5314 ([1]; ratio of GdA-normalized EC50s, human over fungal lysate) of the same compound?
A: 1.134

Q: What about the HepG2/SC5314 ([1]; ratio of GdA-relative EC50 ratios, HepG2 over SC5314) of the same compound?
A: 1.134

Q: And the “Ratio rel. GdA (HepG2)” value (Hsp90 in HEPG2 lysate; EC50 / EC50 of GdA in HepG2 lysate)?
A: 0.3573

Q: What about the “Ratio rel. GdA (HepG2)” value (Hsp90 in HEPG2 lysate; EC50 relative to GdA, HEPG2 lysate) of the same compound?
A: 0.3573

Q: What about the “FP signal, Fxn Control” value (Hsp90 in HEPG2 lysate; HEPG2 lysate, log concentration 0.137354 (1.372 nM)) of the same compound?
A: 0.9198

Q: What about the “FP signal, Fxn Control” value (Hsp90 in HEPG2 lysate; HEPG2 lysate, log concentration 0.61437 (4.115 nM)) of the same compound?
A: 0.7075

Q: And the “FP signal, Fxn Control” value (Hsp90 in HEPG2 lysate; HEPG2 lysate, log concentration 1.09153 (12.346 nM))?
A: 0.5047

Q: And the “FP signal, Fxn Control” value (Hsp90 in HEPG2 lysate; HEPG2 lysate, log concentration 1.56864 (37.037 nM))?
A: 0.3066

Q: And the “FP signal, Fxn Control” value (Hsp90 in HEPG2 lysate; HEPG2 lysate, log concentration 2.04576 (111.111 nM))?
A: 0.2075

Q: What about the “FP signal, Fxn Control” value (Hsp90 in HEPG2 lysate; HEPG2 lysate, log concentration 2.52288 (333.333 nM)) of the same compound?
A: 0.1651

Q: What about the “FP signal, Fxn Control” value (Hsp90 in HEPG2 lysate; HEPG2 lysate, log concentration 3 (1000 nM)) of the same compound?
A: 0.184

Q: And the “FP signal, Fxn Control” value (Hsp90 in HEPG2 lysate; HEPG2 lysate, log concentration 3.47712 (3000 nM))?
A: 0.2028

Q: And the “FP signal, Fxn Control” value (Hsp90 in HEPG2 lysate; HEPG2 lysate, log concentration -0.340084 (0.457 nM))?
A: 0.9575

Q: And the “FP signal (raw)” value (Hsp90 in HEPG2 lysate; HepG2 lysate, 0.457 nM)?
A: 203

Q: And the FP signal (Hsp90 in HEPG2 lysate; HepG2 lysate, 0.457 nM compound)?
A: 203

Q: And the “FP signal (raw)” value (Hsp90 in HEPG2 lysate; HepG2 lysate, 1.372 nM)?
A: 195

Q: And the FP signal (Hsp90 in HEPG2 lysate; HepG2 lysate, 1.372 nM compound)?
A: 195

Q: What about the “FP signal (raw)” value (Hsp90 in HEPG2 lysate; HepG2 lysate, 4.115 nM) of the same compound?
A: 150

Q: What about the FP signal (Hsp90 in HEPG2 lysate; HepG2 lysate, 4.115 nM compound) of the same compound?
A: 150

Q: What about the “FP signal (raw)” value (Hsp90 in HEPG2 lysate; HepG2 lysate, 12.346 nM) of the same compound?
A: 107

Q: And the FP signal (Hsp90 in HEPG2 lysate; HepG2 lysate, 12.346 nM compound)?
A: 107

Q: What about the “FP signal (raw)” value (Hsp90 in HEPG2 lysate; HepG2 lysate, 37.037 nM) of the same compound?
A: 65

Q: What about the FP signal (Hsp90 in HEPG2 lysate; HepG2 lysate, 37.037 nM compound) of the same compound?
A: 65

Q: And the “FP signal (raw)” value (Hsp90 in HEPG2 lysate; HepG2 lysate, 111.111 nM)?
A: 44

Q: And the FP signal (Hsp90 in HEPG2 lysate; HepG2 lysate, 111.111 nM compound)?
A: 44

Q: And the “FP signal (raw)” value (Hsp90 in HEPG2 lysate; HepG2 lysate, 333.333 nM)?
A: 35

Q: And the FP signal (Hsp90 in HEPG2 lysate; HepG2 lysate, 333.333 nM compound)?
A: 35

Q: And the “FP signal (raw)” value (Hsp90 in HEPG2 lysate; HepG2 lysate, 1000 nM)?
A: 39

Q: What about the FP signal (Hsp90 in HEPG2 lysate; HepG2 lysate, 1000 nM compound) of the same compound?
A: 39

Q: And the “FP signal (raw)” value (Hsp90 in HEPG2 lysate; HepG2 lysate, 3000 nM)?
A: 43

Q: What about the FP signal (Hsp90 in HEPG2 lysate; HepG2 lysate, 3000 nM compound) of the same compound?
A: 43

Q: What about the EC50 (Hsp90 in HEPG2 lysate; HepG2 lysate, oxime panel experiment 220817) of the same compound?
A: 7.93 nM

Reference: publication PMC6345968, “Structural basis for species-selective targeting of Hsp90 in a pathogenic fungus” (Nature Communications, 2019)
